Results reported in patent US20260027118A1, “COMPOSITIONS USEFUL FOR MODULATING SPLICING” (Skyhawk Therapeutics, Inc., priority 2022, published 2026).

What was measured:
[1] = tested on: ATXN3 transcripts containing exon 4; test: ATXN3 Quantitative Splicing Assay (qPCR, E4E5 primers/probe); assay type: cell-based, Human; details: Homo sapiens; SK-N-MC cells, treated with compounds for 24 h, qPCR of transcripts containing exon 4
Protocol: Human neuroblastoma SK-N-MC cells were plated in 384-well plates at 20,000 cells/well. Twenty-four hours after plating, cells were treated with compounds for 24 h at appropriate concentrations ranging from 30.M to 0.6 nM (0.300 DMS0). Treated cells were lysed in 15 μL of lysis buffer, and cDNA was synthesized using the Fast Advanced Cells-to-Ct kit. Two μL of each cDNA was used in qPCR reactions to confirm the exon 4 skipped transcripts of ATXN3. A second set of primers/probe E4E5 was used to detect the transcripts containing exon 4. The third set of primers/probe E8E9 was used to detect total gene level of ATXN3. The qPCR reactions were prepared in 384-well plates in 10 μL volume, using TaqMan™ Fast Advanced Master Mix with primers and probes shown in the table below. Reactions were run in a Quant Studio 6 qPCR instrument with default settings.
The primers and probes are listed below in Table 4.

total ATXN3 protein = test: ATXN3 total protein assay (Mesoscale Discovery); assay type: cell-based, Human; details: SK-N-MC cells, 48 hours incubation, MSD assay
Protocol: Human neuroblastoma SK-N-MC cells were seeded at 10,000 cells/well in 384 well plates one day prior to compound treatment. The concentrations of compounds were tested at appropriate doses ranging from 30 μM to 0.6 nM. After incubation for 48 hours, the cells were lysed with 25 μL of lysis buffer containing protease inhibitors, and total ATXN3 protein levels were assessed by Mesoscale Discovery (MSD) assay developed with one pair of anti-ATXN3 antibodies. The capture and detect antibodies were raised in mouse and rabbit respectively. Anti-rabbit MSD-ST antibody was used for secondary antibody. ATXN3 recombinant protein was used for standards. The readouts were captured with 35 μL of MSD read buffer and multi-array 384-well high binding plates.

ATXN3-HiBiT protein = test: ATXN3 HiBiT assay (Nano Glo HiBiT luminescence); assay type: cell-based; details: Kelly-ATXN3-HiBiT cells, luminescence read out 48 h after addition of the compound
Description: To monitor ATXN3 protein levels by luminescence, a Kelly-ATXN3-HiBiT cell line with homozygous knock-in of HiBiT at the C-terminus of the endogenous ATXN3 gene was used (knock-in of the HiBiT-tag coding sequence SEQ ID NO. 14: 5′[…]3′ into exon 11 of ATXN3 -position 1114 of ATXN3 RefSeq NM_004993.6). Manipulations of the Kelly-ATXN3-HiBiT cell line that result in downregulation of the ATXN3-HiBiT protein (through modulation of ATXN3-HiBiT pre-mRNA splicing) can be followed by monitoring the luminescence signal of the HiBiT tag using the Nano Glo HiBiT Lytic Detection System (Promega, #N3050). Kelly-ATXN3-HiBiT cells were maintained in RPMI 1640 w/Glutamax (Gibco, #61870010), 10% FBS (Sigma Aldrich, #F8687), 1% Penicillin/Streptomycin (Gibco, #15140-122) at 37° C., 5% CO2. To assess HiBiT-luminescence signal upon compound treatment, 2000 Kelly-ATXN3-HiBiT cells were seeded per well in 384 plate format. Compounds were added 24 h after seeding. ATXN3-HiBiT-luminescence signal was read out 48 h after addition of the compound using the Nano Glo HiBiT Lytic Detection System (Promega, #N3050) according to the manufacturer's instructions. To control for cell viability, an identically prepared sister plate was read out with the CellTiter-Glo® 2.0 Assay (Promega, #G9243) according to the manufacturer's instructions. Fold changes of ATXN3-HiBiT-luminescence and of CellTiter-Glo viability signals were calculated relative to a DMSO control condition.

| Compound | IC50 [1] [nM] | IC50 (total ATXN3 protein) [nM] | EC50 (ATXN3-HiBiT protein) [nM] |
| --- | --- | --- | --- |
| C[C@H](F)[C@H](N)Cc1oc2c(NCc3cccs3)cc(Cl)nc2c1C#CC1CC1 [Compound 8, 2-[(2R,3S)-2-amino-3-fluorobutyl]-5-chloro-3-(2-cyclopropylethynyl)-7-thenylamino-1-oxa-4-azaindene] | 101 to 500 | 501 to 5000 | 101 to 500 |
| CC#Cc1c(C[C@@H](N)COC)oc2c(NCc3nccs3)cc(Cl)nc12 [Compound 38, 2-[(R)-2-amino-3-methoxypropyl]-5-chloro-3-(1-propynyl)-7-{[(1,3-thiazol-2-yl)methyl]amino}-1-oxa-4-azaindene] | 101 to 500 | 101 to 500 | 101 to 500 |
| CC#Cc1c(C[C@@H](N)[C@H](C)F)oc2c(NCc3ccccc3)cc(Cl)nc12 [Compound 11, 2-[(2R,3S)-2-amino-3-fluorobutyl]-7-benzylamino-5-chloro-3-(1-propynyl)-1-oxa-4-azaindene] | 0.01 to 100 | 101 to 500 | 0.01 to 100 |
| CC#Cc1c(C[C@@H](N)C2CC2)oc2c(NCc3cccs3)cc(Cl)nc12 [Compound 24, 2-[(R)-2-amino-2-cyclopropylethyl]-5-chloro-3-(1-propynyl)-7-thenylamino-1-oxa-4-azaindene] | 501 to 5000 | 501 to 5000 | 501 to 5000 |
| CC#Cc1cc(NCc2cccs2)c2oc(C[C@@H](N)C3CC3)c(C#CC)c2n1 [Compound 25, 2-[(R)-2-amino-2-cyclopropylethyl]-3,5-bis(1-propynyl)-7-thenylamino-1-oxa-4-azaindene] | 10000 to 40000 | 10000 to 40000 | 5000 to 10000 |
| C[C@H](N)Cc1oc2c(NCc3ccco3)cc(Cl)nc2c1C#CCO [Compound 27, 3-{2-[(S)-2-aminopropyl]-5-chloro-7-(furfurylamino)-1-oxa-4-aza-3-indenyl}-2-propyn-1-ol] | 501 to 5000 | 501 to 5000 | 501 to 5000 |
| C[C@H](N)Cc1oc2c(NCc3ccco3)cc(Cl)nc2c1C#CC1CC1 [Compound 9, 2-[(S)-2-aminopropyl]-5-chloro-3-(2-cyclopropylethynyl)-7-(furfurylamino)-1-oxa-4-azaindene] | 501 to 5000 | 501 to 5000 | 501 to 5000 |
| C[C@H](N)Cc1oc2c(NCc3cccs3)cc(Cl)nc2c1C#CC1CC1 [Compound 10, 2-[(S)-2-aminopropyl]-5-chloro-3-(2-cyclopropylethynyl)-7-thenylamino-1-oxa-4-azaindene] | 501 to 5000 | 501 to 5000 | 501 to 5000 |
| C[C@H](N)Cc1oc2c(NCc3cccs3)cc(Cl)nc2c1C#CCO [Compound 26, 3-{2-[(S)-2-aminopropyl]-5-chloro-7-thenylamino-1-oxa-4-aza-3-indenyl}-2-propyn-1-ol] | 101 to 500 | 501 to 5000 | 101 to 500 |
| CC#Cc1c(C[C@H](C)N)oc2c(NCc3cccs3)c(F)c(Cl)nc12 [Compound 36] | 501 to 5000 | 501 to 5000 | 501 to 5000 |
